Laboratory results taken from the kinase profiling compilation of Christmann-Franck et al. (2016).

Experiments:
Assay in all cases: KINOMEscan competition binding
Conditions in all cases: compound 10.0 µM
[1] = molecular target: OXSR1 (human) (UniProt O95747)
[2] = molecular target: CSNK1D (human) (UniProt P48730)
[3] = molecular target: INSRR (human) (UniProt P14616)
[4] = molecular target: TESK1 (human) (UniProt Q15569)
[5] = molecular target: TLK2 (human) (UniProt Q86UE8)
[6] = molecular target: NLK (human) (UniProt Q9UBE8)
[7] = molecular target: MERTK (human) (UniProt Q12866)
[8] = molecular target: ACVR2B (human) (UniProt Q13705)
[9] = molecular target: FER (human) (UniProt P16591)
[10] = molecular target: MAP3K11 (human) (UniProt Q16584)
[11] = molecular target: DAPK2 (human) (UniProt Q9UIK4)
Sequence of DAPK2 (human) (Q9UIK4 whole entry, looked up): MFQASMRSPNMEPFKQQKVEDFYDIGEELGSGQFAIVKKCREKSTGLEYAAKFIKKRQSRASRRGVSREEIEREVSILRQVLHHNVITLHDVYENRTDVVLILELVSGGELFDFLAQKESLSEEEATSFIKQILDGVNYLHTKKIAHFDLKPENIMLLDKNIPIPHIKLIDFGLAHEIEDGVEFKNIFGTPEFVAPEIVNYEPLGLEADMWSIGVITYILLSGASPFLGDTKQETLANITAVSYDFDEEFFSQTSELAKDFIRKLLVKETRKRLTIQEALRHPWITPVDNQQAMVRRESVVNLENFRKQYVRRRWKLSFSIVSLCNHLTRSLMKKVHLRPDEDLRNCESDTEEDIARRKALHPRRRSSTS

[12] = molecular target: IGF1R (human) (UniProt P08069)
[13] = molecular target: PIK3CB (human) (UniProt P42338)
[14] = molecular target: CDK14 (human) (UniProt O94921)
[15] = molecular target: RET (human) (UniProt P07949)
Sequence of RET (human) (P07949 whole entry, looked up): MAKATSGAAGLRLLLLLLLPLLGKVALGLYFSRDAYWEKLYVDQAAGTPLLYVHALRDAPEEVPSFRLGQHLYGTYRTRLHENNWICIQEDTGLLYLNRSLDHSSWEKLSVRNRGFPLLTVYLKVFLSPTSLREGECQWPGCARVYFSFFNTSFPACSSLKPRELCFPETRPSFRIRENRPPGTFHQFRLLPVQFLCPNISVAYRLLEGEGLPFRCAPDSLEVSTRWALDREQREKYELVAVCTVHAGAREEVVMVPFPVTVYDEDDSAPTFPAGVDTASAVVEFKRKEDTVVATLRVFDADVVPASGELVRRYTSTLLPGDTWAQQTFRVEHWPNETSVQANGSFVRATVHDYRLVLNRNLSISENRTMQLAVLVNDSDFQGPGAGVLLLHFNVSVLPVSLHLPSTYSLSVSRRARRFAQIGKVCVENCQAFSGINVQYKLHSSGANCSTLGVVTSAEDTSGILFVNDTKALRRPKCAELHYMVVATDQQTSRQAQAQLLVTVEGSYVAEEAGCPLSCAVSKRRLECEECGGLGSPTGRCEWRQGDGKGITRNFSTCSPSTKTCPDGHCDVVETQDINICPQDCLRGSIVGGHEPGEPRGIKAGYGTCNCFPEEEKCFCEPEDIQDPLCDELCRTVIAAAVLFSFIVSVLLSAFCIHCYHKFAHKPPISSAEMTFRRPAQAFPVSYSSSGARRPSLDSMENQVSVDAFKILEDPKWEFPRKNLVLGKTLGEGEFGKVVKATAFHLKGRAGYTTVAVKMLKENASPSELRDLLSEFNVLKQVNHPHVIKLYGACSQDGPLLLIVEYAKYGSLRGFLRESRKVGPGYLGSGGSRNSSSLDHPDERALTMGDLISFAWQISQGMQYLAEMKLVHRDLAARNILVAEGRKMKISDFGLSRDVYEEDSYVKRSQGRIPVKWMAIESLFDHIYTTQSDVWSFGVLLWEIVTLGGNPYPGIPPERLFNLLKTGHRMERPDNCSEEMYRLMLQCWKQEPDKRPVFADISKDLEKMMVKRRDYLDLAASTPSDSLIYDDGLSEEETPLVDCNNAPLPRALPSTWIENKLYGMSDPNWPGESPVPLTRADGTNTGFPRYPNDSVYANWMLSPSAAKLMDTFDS

[16] = molecular target: CASK (human) (UniProt O14936)
[17] = molecular target: PRPF4B (human) (UniProt Q13523)
[18] = molecular target: CSNK1E (human) (UniProt P49674)
[19] = molecular target: CDC42BPA (human) (UniProt Q5VT25)
[20] = molecular target: VRK2 (human) (UniProt Q86Y07)
[21] = molecular target: ERBB4 (human) (UniProt Q15303)
[22] = molecular target: LYN (human) (UniProt P07948)
[23] = molecular target: STK33 (human) (UniProt Q9BYT3)
Sequence of STK33 (human) (Q9BYT3 whole entry, looked up): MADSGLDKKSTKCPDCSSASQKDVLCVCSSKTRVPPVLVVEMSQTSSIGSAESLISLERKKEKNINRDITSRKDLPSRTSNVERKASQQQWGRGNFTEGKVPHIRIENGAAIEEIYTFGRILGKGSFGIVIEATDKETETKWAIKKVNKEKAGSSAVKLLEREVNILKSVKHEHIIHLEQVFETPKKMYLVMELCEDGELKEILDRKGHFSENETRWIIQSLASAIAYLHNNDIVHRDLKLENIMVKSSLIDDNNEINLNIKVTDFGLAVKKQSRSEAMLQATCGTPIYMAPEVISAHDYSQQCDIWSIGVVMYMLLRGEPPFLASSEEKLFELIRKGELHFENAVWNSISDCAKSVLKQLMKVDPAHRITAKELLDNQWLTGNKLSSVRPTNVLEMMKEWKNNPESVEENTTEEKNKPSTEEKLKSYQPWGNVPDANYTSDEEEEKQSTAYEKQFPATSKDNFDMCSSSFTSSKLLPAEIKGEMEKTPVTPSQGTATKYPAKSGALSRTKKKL

[24] = molecular target: PAK2 (human) (UniProt Q13177)
Sequence of PAK2 (human) (Q13177 whole entry, looked up): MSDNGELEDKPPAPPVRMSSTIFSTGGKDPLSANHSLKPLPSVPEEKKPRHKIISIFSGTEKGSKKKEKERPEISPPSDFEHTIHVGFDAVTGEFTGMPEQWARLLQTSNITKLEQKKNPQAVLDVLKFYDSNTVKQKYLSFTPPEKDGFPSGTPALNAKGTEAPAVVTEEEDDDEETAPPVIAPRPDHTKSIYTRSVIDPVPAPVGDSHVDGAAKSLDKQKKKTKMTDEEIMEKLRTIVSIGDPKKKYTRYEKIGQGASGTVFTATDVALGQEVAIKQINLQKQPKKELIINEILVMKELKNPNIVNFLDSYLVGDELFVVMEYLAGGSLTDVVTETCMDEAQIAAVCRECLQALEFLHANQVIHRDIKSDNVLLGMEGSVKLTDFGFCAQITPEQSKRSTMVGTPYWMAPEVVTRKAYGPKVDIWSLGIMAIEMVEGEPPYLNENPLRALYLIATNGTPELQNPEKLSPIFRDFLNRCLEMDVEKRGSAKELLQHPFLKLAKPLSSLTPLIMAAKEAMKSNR

[25] = molecular target: AXL (human) (UniProt P30530)
[26] = molecular target: MINK1 (human) (UniProt Q8N4C8)
[27] = molecular target: MARK2 (human) (UniProt Q7KZI7)
[28] = molecular target: ERBB2 (human) (UniProt P04626)
[29] = molecular target: EPHA8 (human) (UniProt P29322)
[30] = molecular target: EPHB2 (human) (UniProt P29323)
Sequence of EPHB2 (human) (P29323 whole entry, looked up): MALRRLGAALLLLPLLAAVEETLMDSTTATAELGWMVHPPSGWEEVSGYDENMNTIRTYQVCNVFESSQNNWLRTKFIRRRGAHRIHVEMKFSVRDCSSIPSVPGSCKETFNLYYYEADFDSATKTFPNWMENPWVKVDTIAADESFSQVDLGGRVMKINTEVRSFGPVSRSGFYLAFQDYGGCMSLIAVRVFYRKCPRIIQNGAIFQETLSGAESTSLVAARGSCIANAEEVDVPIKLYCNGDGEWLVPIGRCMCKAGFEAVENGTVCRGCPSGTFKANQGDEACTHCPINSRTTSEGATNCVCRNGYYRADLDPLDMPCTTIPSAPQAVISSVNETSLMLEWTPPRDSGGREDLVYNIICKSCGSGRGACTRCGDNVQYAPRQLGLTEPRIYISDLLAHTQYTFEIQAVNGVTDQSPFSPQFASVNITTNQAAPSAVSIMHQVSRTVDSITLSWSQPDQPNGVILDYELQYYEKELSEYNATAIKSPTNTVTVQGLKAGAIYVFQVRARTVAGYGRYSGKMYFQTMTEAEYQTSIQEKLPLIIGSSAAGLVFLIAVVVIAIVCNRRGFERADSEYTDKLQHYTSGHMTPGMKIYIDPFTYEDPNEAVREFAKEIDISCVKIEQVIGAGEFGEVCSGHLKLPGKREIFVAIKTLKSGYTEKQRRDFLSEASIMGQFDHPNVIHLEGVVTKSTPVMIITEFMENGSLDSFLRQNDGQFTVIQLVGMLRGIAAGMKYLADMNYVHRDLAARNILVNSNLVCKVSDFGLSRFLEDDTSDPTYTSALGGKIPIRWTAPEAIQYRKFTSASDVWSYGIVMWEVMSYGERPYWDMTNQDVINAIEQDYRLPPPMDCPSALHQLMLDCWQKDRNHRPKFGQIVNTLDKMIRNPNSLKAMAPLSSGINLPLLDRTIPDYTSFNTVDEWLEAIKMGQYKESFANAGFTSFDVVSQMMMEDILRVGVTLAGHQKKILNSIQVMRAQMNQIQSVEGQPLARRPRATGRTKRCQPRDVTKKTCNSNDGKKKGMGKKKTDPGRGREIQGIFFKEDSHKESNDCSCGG

[31] = molecular target: CDKL2 (human) (UniProt Q92772)
Sequence of CDKL2 (human) (Q92772 whole entry, looked up): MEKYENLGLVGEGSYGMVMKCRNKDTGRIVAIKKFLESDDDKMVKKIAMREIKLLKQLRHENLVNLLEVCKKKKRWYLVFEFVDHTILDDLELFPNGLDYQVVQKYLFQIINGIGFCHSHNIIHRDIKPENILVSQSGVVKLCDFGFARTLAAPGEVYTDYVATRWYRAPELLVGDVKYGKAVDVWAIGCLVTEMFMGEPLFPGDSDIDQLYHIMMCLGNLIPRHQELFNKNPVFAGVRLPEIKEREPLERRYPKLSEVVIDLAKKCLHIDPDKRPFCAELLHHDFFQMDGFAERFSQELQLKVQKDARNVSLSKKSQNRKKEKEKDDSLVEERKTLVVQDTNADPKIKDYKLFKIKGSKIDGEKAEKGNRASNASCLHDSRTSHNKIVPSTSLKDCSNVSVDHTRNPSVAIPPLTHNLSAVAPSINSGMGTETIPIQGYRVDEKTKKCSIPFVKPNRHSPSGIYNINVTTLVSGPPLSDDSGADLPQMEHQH

[32] = molecular target: RIOK2 (human) (UniProt Q9BVS4)
[33] = molecular target: CSNK1G3 (human) (UniProt Q9Y6M4)
[34] = molecular target: MAPK11 (human) (UniProt Q15759)
[35] = molecular target: FGFR3 (human) (UniProt P22607)
Sequence of FGFR3 (human) (P22607 whole entry, looked up): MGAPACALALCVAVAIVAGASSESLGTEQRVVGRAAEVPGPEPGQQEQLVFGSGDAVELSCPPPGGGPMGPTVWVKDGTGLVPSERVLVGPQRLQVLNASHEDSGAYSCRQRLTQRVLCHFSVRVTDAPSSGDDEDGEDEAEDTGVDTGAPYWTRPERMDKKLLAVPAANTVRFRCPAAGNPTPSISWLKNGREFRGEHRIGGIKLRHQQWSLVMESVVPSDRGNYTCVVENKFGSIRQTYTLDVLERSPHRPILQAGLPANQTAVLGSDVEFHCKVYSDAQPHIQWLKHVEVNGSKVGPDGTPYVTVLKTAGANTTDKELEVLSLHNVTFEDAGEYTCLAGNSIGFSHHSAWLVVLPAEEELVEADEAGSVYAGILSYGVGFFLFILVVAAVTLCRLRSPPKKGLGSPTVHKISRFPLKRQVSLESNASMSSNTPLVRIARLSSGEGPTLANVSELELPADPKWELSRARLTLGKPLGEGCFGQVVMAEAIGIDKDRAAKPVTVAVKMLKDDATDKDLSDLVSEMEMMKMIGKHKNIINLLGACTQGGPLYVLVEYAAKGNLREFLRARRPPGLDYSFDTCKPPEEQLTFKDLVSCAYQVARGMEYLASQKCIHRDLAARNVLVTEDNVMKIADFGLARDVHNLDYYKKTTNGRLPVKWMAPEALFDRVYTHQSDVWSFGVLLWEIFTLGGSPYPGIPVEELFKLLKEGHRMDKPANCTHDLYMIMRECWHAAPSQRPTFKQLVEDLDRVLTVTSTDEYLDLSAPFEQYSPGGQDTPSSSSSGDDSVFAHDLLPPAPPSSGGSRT

[36] = molecular target: PIK3C2B (human) (UniProt O00750)
[37] = molecular target: CDK7 (human) (UniProt P50613)
[38] = molecular target: CSNK1G1 (human) (UniProt Q9HCP0)
[39] = molecular target: PRKAA1 (human) (UniProt Q13131)
[40] = molecular target: DYRK2 (human) (UniProt Q92630)

Row | SMILES | kinase still bound, per cent of control [1] [%] | kinase still bound, per cent of control [2] [%] | kinase still bound, per cent of control [3] [%] | kinase still bound, per cent of control [4] [%] | kinase still bound, per cent of control [5] [%] | kinase still bound, per cent of control [6] [%] | kinase still bound, per cent of control [7] [%] | kinase still bound, per cent of control [8] [%] | kinase still bound, per cent of control [9] [%] | kinase still bound, per cent of control [10] [%] | kinase still bound, per cent of control [11] [%] | kinase still bound, per cent of control [12] [%] | kinase still bound, per cent of control [13] [%] | kinase still bound, per cent of control [14] [%] | kinase still bound, per cent of control [15] [%] | kinase still bound, per cent of control [16] [%] | kinase still bound, per cent of control [17] [%] | kinase still bound, per cent of control [18] [%] | kinase still bound, per cent of control [19] [%] | kinase still bound, per cent of control [20] [%] | also measured
1 | N#CCNC(=O)c1ccc(-c2ccnc(Nc3ccc(N4CCOCC4)cc3)n2)cc1 | 58 | 100 | 100 | 100 | 88 | 86 | 100 | 54 | 100 | 95 | 41 | 100 | 100 | 76 | 50 | 100 | 8 | 100 | 67 | 94 | kinase still bound, per cent of control [21]: 100%; kinase still bound, per cent of control [22]: 94%; kinase still bound, per cent of control [23]: 98%; kinase still bound, per cent of control [24]: 100%; kinase still bound, per cent of control [25]: 57%; kinase still bound, per cent of control [26]: 82%; kinase still bound, per cent of control [27]: 43%; kinase still bound, per cent of control [28]: 61%; kinase still bound, per cent of control [29]: 83%; kinase still bound, per cent of control [30]: 100%; kinase still bound, per cent of control [31]: 69%; kinase still bound, per cent of control [32]: 68%; kinase still bound, per cent of control [33]: 100%; kinase still bound, per cent of control [34]: 100%; kinase still bound, per cent of control [35]: 86%; kinase still bound, per cent of control [36]: 56%; kinase still bound, per cent of control [37]: 3.8%; kinase still bound, per cent of control [38]: 100%; kinase still bound, per cent of control [39]: 42%; kinase still bound, per cent of control [40]: 76%
2 | CN(C)C/C=C/C(=O)Nc1ccc(C(=O)Nc2cccc(Nc3nccc(-c4cccnc4)n3)c2)cc1 | 100 | 20 | 100 | 74 | 100 | 82 | 100 | 98 | 100 | 100 | 81 | 100 | 100 | 98 | 79 | 98 | 100 | 56 | 100 | 90 | kinase still bound, per cent of control [21]: 100%; kinase still bound, per cent of control [22]: 100%; kinase still bound, per cent of control [23]: 100%; kinase still bound, per cent of control [24]: 76%; kinase still bound, per cent of control [25]: 80%; kinase still bound, per cent of control [26]: 50%; kinase still bound, per cent of control [27]: 73%; kinase still bound, per cent of control [28]: 97%; kinase still bound, per cent of control [29]: 91%; kinase still bound, per cent of control [30]: 100%; kinase still bound, per cent of control [31]: 33%; kinase still bound, per cent of control [32]: 9.6%; kinase still bound, per cent of control [33]: 100%; kinase still bound, per cent of control [34]: 88%; kinase still bound, per cent of control [35]: 96%; kinase still bound, per cent of control [36]: 100%; kinase still bound, per cent of control [37]: 3.2%; kinase still bound, per cent of control [38]: 0.5%; kinase still bound, per cent of control [39]: 100%; kinase still bound, per cent of control [40]: 29%
